Results: patent publication US20060069136A1, “Use of Epothilones in the treatment of bone metastasis” (priority 2004, published 2006)
“And” between values parts separate entries of the source, which are not always exact repeats. Equal entries are not always repeated.

Assays:
[1] = tested on: Human breast cancer MDA MB 231; test: Bone metastasis model, Example 2: treatment on Day 5, X-ray on Day 20; format: in vivo, NMRI nude mice; settings: 10 mg/kg i.v. on Day 5
Method: (§1) Human breast cancer MDA MB 231, injected to NMRI nude mice intracardially
30 NMRI nude mice received 500,000 of MDA-MB 231 breast cancer tumor cells intracardially (Day 0). The tumor cells metastasized to the bones and the growth of the tumor in the bones lead to bone destruction. In addition, the development of tumors near the tumor cell injection site is observed. After 5 days (Day 5), 15 of the 30 animals were treated with the Test Compound (10 mg/kg, i.v.). On Day 20 the experiment was terminated and the size and number of bone metastases were measured in each animal using the X-ray technology described in example 1. In addition, the numer of animals which developed tumors at the tumor cell injection site was determined.

[2] = tested on: Human breast cancer MDA MB 231; test: Bone metastasis model, Example 1: treatment on Day 10, X-ray on Day 22, survival; format: in vivo, NMRI nude mice
Method: as §1
Four days before tumor cells implantation, the baseline bone structure of the mice was determined by X-ray. 30 NMRI nude mice received 500,000 of MDA-MB 231 breast cancer tumor cells intracardially (Day 0). The tumor cells metastasized to the bones and the growth of the tumor in the bones lead to bone destruction. After the period of 10 days (Day 10), 10 of the […] animals were treated with the Test Compound (10 mg/kg, i.v.). The size and number of bone metastases were monitored 4 days before tumor cell implantation (baseline) and on Day 22 in each animal using the X-ray technology described below.
The mice underwent an anaesthesia with a mixture of Rompun (Rompun 2% Bayer) diluted with sodium chloride solution(Braun) by 1:10 and Ketavet ( Pharmacia GmbH 100 mg/ml), diluted by 1:5 with isotonic sodium chloride solution. For application of the narcotics, 1 ml sterile syringes (Codan Medical) and cannula (Braun Sterican, size 18) were used.
Once the tolerance stage was reached, the mice were attached to a 1 mm strong acrylic glass and additionally taped with a self-adhesive tape (sticky side facing the animal). The acrylic glass served as surface on which the animals underwent the X-ray.
At the console of the Mammomat (run by the software “Detector” (Ifg) on Windows NT platform), the standard setting of 35 kV and 400 mAs was adjusted. The setting was chosen in such a way to allow a good contrasting of the entire skeletal system and visibility of finest changes/aberrations of the bone structure and morphology. The resolution of the systems lies at 0,27 μm.
After initializing the Software the module “Zoomed Modus” was chosen for the detector and the ROIs 2-3 were selected in accordance with the previously selected positioning of the mouse. The regulator Image High was adjusted to 2000.
The actual measurements were started as soon as the Offset measurings and the reference measurings had been performed. The flexible table was brought into position (80 mm) and was advanced at a speed of 25,9 mm/sec. The final position of the table was chosen in such a way that the entire body of the mouse could be X-rayed all at once during the examination. The reference measuring was subtracted from each gained Image and was stored as a DICOM-file or as a BMP-file.
Analysis of the treatment was performed on Day 22 by evaluating twice the constructed exposures of the mice and searching for destructive processes of the skeletal system (focussing mainly on the long bones, spine and pelvis). The extend/area of the destructive processes/bone metastasis were determined with a special DICOM-Software (based on Microsoft Excel).

[3] = mean per animal, measured on Day 20 by X-ray, 10 mg/kg
[4] = 10 mg/kg i.v. on Day 10, result in words

C=CCC1C(=O)C(C)(C)C(O)CC(=O)OC(c2ccc3sc(C)nc3c2)CC2OC2(C)CCCC(C)C1O (stereo not shown) [Test Compound, 7,11-dihydroxy-3-(2-methyl-benzothiazol-5-yl)-10-(prop-2-en-1-yl)-8,8,12,16-tetramethyl-4,17-dioxabicyclo[14.1.0]heptadecane-5,9-dione]
Number of bone-metastases [1, 3]: 0.7 and 0.7 ± 0.9 | Size of bone-metastases [1, 3]: 0.1 mm^2 and 0.1 ± 0.2 mm^2 | Number of animals which developed tumors at the tumor cell injection site ([1]; of 15 animals, Day 20): 0 | Effect on bone metastasis (FIG. 1) [2, 4]: inhibited bone metastasis | Effect on life time (FIG. 1) [2, 4]: prolongation of life time was observed | Mean Survival Time ([2]; 10 mg/kg i.v., single application on Day 10, MDA-MB 231 cells intracardially): 31.6 days | Mean Bone Tumor Area ([2]; 10 mg/kg i.v., single treatment on Day 10, X-ray analysis on Day 22, MDA-MB 231 cells intracardially): 5.9 mm^2
